The record followed here is patent publication US8163793B2, “Proline derivatives” (Hoffman-La Roche Inc., priority 2009, dated 2012).

pIC50: −log10 of the molar value.

In one test the target is Cat L (UniProt P07711). Description: Cathepsin enzyme inhibition assay (fluorogenic peptide substrate Z-Val-Val-Arg-AMC), Cathepsin L. Type of test: biochemical, human and mouse. The conditions noted are these: enzyme 1 nM, substrate 20 μM, pH 6.5; read-out: CatL IC50. How it is done: (§1) Cathepsin Enzyme Inhibition Assay
(§2) Enzyme activity is measured by observing the increase in fluorescence intensity caused by cleavage of a peptide substrate containing a fluorophore whose emission is quenched in the intact peptide.
(§3) Assay buffer: 100 mM potassium phosphate pH 6.5, EDTA-Na 5 mM, Triton X-100 0.001%, DDT 5 mM.
(§4) Enzymes (all at 1 nM): human and mouse Cathepsin S, Cat K, Cat B, Cat L Substrate (20 μM): Z-Val-Val-Arg-AMC, except for Cat K which uses Z-Leu-Arg-AMC (both from Bachem).
(§5) AMC=7-Amino-4-Methyl-Coumarin.
Excitation 360 nm, Emission 465 nm.
Enzyme is added to the substance dilutions in 96-well microtitre plates and the reaction is started with substrate. Fluorescence emission is measured over 20 minutes, during which time a linear increase is observed in the absence of inhibitor. IC50 are calculated by standard methods. The results are expressed in μM in the following table.
In the case of `N#CC1(NC(=O)[C@@H]2C[C@@H](S(=O)(=O)c3ccccc3C(F)(F)F)CN2c2ccccc2)CC1` [Example 119, (2S,4R)-1-Phenyl-4-(2-trifluoromethyl-benzenesulfonyl)-pyrrolidine-2-carboxylic acid (1-cyano-cyclopropyl)-amide], the pIC50 was at most 4.60.

Regarding `N#CCNC(=O)[C@@H]1C[C@@H](S(=O)(=O)c2ccccc2C(F)(F)F)CN1c1ccccc1` [Example 151, (2S,4R)-1-Phenyl-4-(2-trifluoromethyl-benzenesulfonyl)-pyrrolidine-2-carboxylic acid cyanomethyl-amide], the pIC50 was at most 4.60.

In the case of `N#CC1(NC(=O)[C@@H]2C[C@@H](S(=O)(=O)c3ccccc3C(F)(F)F)CN2c2ccnc(C(F)(F)F)n2)CC1` [Example 185, (2S,4R)-4-(2-Trifluoromethyl-benzenesulfonyl)-1-(2-trifluoromethyl-pyrimidin-4-yl)-pyrrolidine-2-carboxylic acid (1-cyano-cyclopropyl)-amide], the pIC50 was at most 4.60.

The target in the next test is Cathepsin S (UniProt P25774). Description: Cathepsin enzyme inhibition assay (fluorogenic peptide substrate Z-Val-Val-Arg-AMC), Cathepsin S. Type of test: biochemical, human and mouse. The conditions noted are these: enzyme 1 nM, substrate 20 μM, pH 6.5; read-out: CatS IC50. How it is done: as §1, §2, §3, §4, §5
Enzyme is added to the substance dilutions in 96-well microtitre plates and the reaction is started with substrate. […] IC50 are calculated by standard methods. The results are expressed in μM in the following table.
For the molecule `CC(C)(C)OC(=O)N1C[C@H](S(=O)(=O)c2c(Cl)cccc2Cl)C[C@H]1C(=O)NC1(C#N)CC1` [Example 47, (2S,4R)-2-(1-Cyano-cyclopropylcarbamoyl)-4-(2,6-dichloro-benzenesulfonyl)-pyrrolidine-1-carboxylic acid tert-butyl ester], the pIC50 is 8.85.

`N#CC1(NC(=O)[C@@H]2C[C@@H](S(=O)(=O)c3ccccc3Cl)CN2C(=O)C2(c3ccc(Cl)cc3)CC2)CC1` [Example 215, (2S,4R)-4-(2-Chloro-benzenesulfonyl)-1-[1-(4-chloro-phenyl)-cyclopropanecarbonyl]-pyrrolidine-2-carboxylic acid (1-cyano-cyclopropyl)-amide]: the pIC50 is 9.70.

With `Cc1cc(N2C[C@H](S(=O)(=O)c3ccccc3C(F)(F)F)C[C@H]2C(=O)NC2(C#N)CC2)nn1C` [Example 255, (2S,4R)-1-(1,5-Dimethyl-1H-pyrazol-3-yl)-4-(2-trifluoromethyl-benzenesulfonyl)-pyrrolidine-2-carboxylic acid (1-cyano-cyclopropyl)-amide], the pIC50 is 8.25.

As to `N#CC1(NC(=O)[C@@H]2C[C@@H](S(=O)(=O)c3ccc(-c4ccc(F)cc4F)cc3C(F)(F)F)CN2C(=O)C2(C(F)(F)F)CC2)CC1` [Example 263, (2S,4R)-4-(2′,4′-Difluoro-3-trifluoromethyl-biphenyl-4-sulfonyl)-1-(1-trifluoromethyl-cyclopropanecarbonyl)-pyrrolidine-2-carboxylic acid (1-cyano-cyclopropyl)-amide], the negative-log IC50 (pIC50) is 9.48.

On to `Cc1cc(N2C[C@H](S(=O)(=O)c3ccccc3C(F)(F)F)C[C@H]2C(=O)NC2(C#N)CC2)n[nH]1` [Example 286, (2S,4R)-1-(5-Methyl-1H-pyrazol-3-yl)-4-(2-trifluoromethyl-benzenesulfonyl)-pyrrolidine-2-carboxylic acid (1-cyano-cyclopropyl)-amide], for which the negative-log IC50 (pIC50) is 7.82.

Turning to `N#CC1(NC(=O)[C@@H]2C[C@@H](S(=O)(=O)c3ccc(N4CCN(CC(F)(F)F)CC4)cc3Cl)CN2C(=O)C2(C(F)(F)F)CC2)CC1` [Example 291, (2S,4R)-4-{2-Chloro-4-[4-(2,2,2-trifluoro-ethyl)-piperazin-1-yl]-benzenesulfonyl}-1-(1-trifluoromethyl-cyclopropanecarbonyl)-pyrrolidine-2-carboxylic acid (1-cyano-cyclopropyl)-amide], the pIC50 was 7.83.

Regarding `CN1CCN(c2ccc(S(=O)(=O)[C@@H]3CC(C(=O)NC4(C#N)CC4)N(C(=O)C4(C(F)(F)F)CC4)C3)c(Cl)c2)CC1` (stereo partly drawn) [Example 305, (R)-4-[2-Chloro-4-(4-methyl-piperazin-1-yl)-benzenesulfonyl]-1-(1-trifluoromethyl-cyclopropanecarbonyl)-pyrrolidine-2-carboxylic acid (1-cyano-cyclopropyl)-amide], the negative logarithm of the IC50 (pIC50) is 7.71.

As to `N#CC1(NC(=O)[C@@H]2C[C@@H](S(=O)(=O)c3ccc(F)cc3Cl)CN2C(=O)C2(c3ccc(Cl)cc3)CC2)CC1` [Example 312, (2S,4R)-4-(2-Chloro-4-fluoro-benzenesulfonyl)-1-[1-(4-chloro-phenyl)-cyclopropanecarbonyl]-pyrrolidine-2-carboxylic acid (1-cyano-cyclopropyl)-amide], the pIC50 was 9.71.

As to `CN1CCN(c2ccc(S(=O)(=O)[C@@H]3C[C@@H](C(=O)NC4(C#N)CC4)N(C(=O)C4(c5ccc(Cl)cc5)CC4)C3)c(Cl)c2)CC1` [Example 324, (2S,4R)-4-[2-Chloro-4-(4-methyl-piperazin-1-yl)-benzenesulfonyl]-1-[1-(4-chloro-phenyl)-cyclopropanecarbonyl]-pyrrolidine-2-carboxylic acid (1-cyano-cyclopropyl)-amide], the pIC50 is 10.05.

Take `N#CC1(NC(=O)[C@@H]2C[C@@H](S(=O)(=O)c3ccc(-n4ccnc4)cc3Cl)CN2C(=O)C2(c3ccc(Cl)cc3)CC2)CC1` [Example 325, (2S,4R)-4-(2-Chloro-4-imidazol-1-yl-benzenesulfonyl)-1-[1-(4-chloro-phenyl)-cyclopropanecarbonyl]-pyrrolidine-2-carboxylic acid (1-cyano-cyclopropyl)-amide]: the negative logarithm of the IC50 (pIC50) was 10.10.

In the case of `Cc1nccn1-c1ccc(S(=O)(=O)[C@@H]2C[C@@H](C(=O)NC3(C#N)CC3)N(C(=O)C3(c4ccc(Cl)cc4)CC3)C2)c(Cl)c1` [Example 326, (2S,4R)-4-[2-Chloro-4-(2-methyl-imidazol-1-yl)-benzenesulfonyl]-1-[1-(4-chloro-phenyl)-cyclopropanecarbonyl]-pyrrolidine-2-carboxylic acid (1-cyano-cyclopropyl)-amide], the negative logarithm of the IC50 (pIC50) is 9.74.

As for `N#CC1(NC(=O)[C@@H]2C[C@@H](S(=O)(=O)c3ccc(-n4cccn4)cc3Cl)CN2C(=O)C2(c3ccc(Cl)cc3)CC2)CC1` [Example 327, (2S,4R)-1-[1-(4-Chloro-phenyl)-cyclopropanecarbonyl]-4-(2-chloro-4-pyrazol-1-yl-benzenesulfonyl)-pyrrolidine-2-carboxylic acid (1-cyano-cyclopropyl)-amide], the pIC50 was 9.76.

Consider `CC(C)(C)N1CCN(c2ccc(S(=O)(=O)[C@@H]3C[C@@H](C(=O)NC4(C#N)CC4)N(C(=O)C4(c5ccc(Cl)cc5)CC4)C3)c(Cl)c2)CC1` [Example 329, (2S,4R)-4-[4-(4-tert-Butyl-piperazin-1-yl)-2-chloro-benzenesulfonyl]-1-[1-(4-chloro-phenyl)-cyclopropanecarbonyl]-pyrrolidine-2-carboxylic acid (1-cyano-cyclopropyl)-amide], for which the pIC50 was 9.94.

With `N#CC1(NC(=O)[C@@H]2C[C@@H](S(=O)(=O)c3ccc(N4CCN(C5CC5)CC4)cc3Cl)CN2C(=O)C2(c3ccc(Cl)cc3)CC2)CC1` [Example 330, (2S,4R)-4-[2-Chloro-4-(4-cyclopropyl-piperazin-1-yl)-benzenesulfonyl]-1-[1-(4-chloro-phenyl)-cyclopropanecarbonyl]-pyrrolidine-2-carboxylic acid (1-cyano-cyclopropyl)-amide], the pIC50 is 10.10.

Regarding `CC(C)c1nccn1-c1ccc(S(=O)(=O)[C@@H]2C[C@@H](C(=O)NC3(C#N)CC3)N(C(=O)C3(c4ccc(Cl)cc4)CC3)C2)c(Cl)c1` [Example 336, (2S,4R)-4-[2-Chloro-4-(2-isopropyl-imidazol-1-yl)-benzenesulfonyl]-1-[1-(4-chloro-phenyl)-cyclopropanecarbonyl]-pyrrolidine-2-carboxylic acid (1-cyano-cyclopropyl)-amide], the negative-log IC50 (pIC50) is 9.48.

In the case of `Cc1cc(N2C[C@H](S(=O)(=O)c3ccc(N4CC(F)(F)C4)cc3C(F)(F)F)C[C@H]2C(=O)NC2(C#N)CC2)n(C2CCOCC2)n1` [Example 403, (2S,4R)-4-[4-(3,3-Difluoro-azetidin-1-yl)-2-trifluoromethyl-benzenesulfonyl]-1-[5-methyl-2-(tetrahydro-pyran-4-yl)-2H-pyrazol-3-yl]-pyrrolidine-2-carboxylic acid (1-cyano-cyclopropyl)-amide], the pIC50 was 9.31.

Take `Cc1cc(N2C[C@H](S(=O)(=O)c3ccc(N4CCN(C)CC4)cc3C(F)(F)F)C[C@H]2C(=O)NC2(C#N)CC2)n(C2CCOCC2)n1` [Example 404, (2S,4R)-4-[4-(4-Methyl-piperazin-1-yl)-2-trifluoromethyl-benzenesulfonyl]-1-[5-methyl-2-(tetrahydro-pyran-4-yl)-2H-pyrazol-3-yl]-pyrrolidine-2-carboxylic acid (1-cyano-cyclopropyl)-amide]: the pIC50 was 9.39.

Take `Cc1ccc(C2(C(=O)N3C[C@H](S(=O)(=O)c4ccccc4Cl)C[C@H]3C(=O)NC3(C#N)CC3)CC2)cc1` [Example 438, (2S,4R)-4-(2-chlorophenylsulfonyl)-N-(1-cyanocyclopropyl)-1-(1-p-tolylcyclopropane-carbonyl)pyrrolidine-2-carboxamide]: the pIC50 is 9.28.

On to `N#CC1(NC(=O)[C@@H]2C[C@@H](S(=O)(=O)Cc3ccccc3)CN2C(=O)C2(c3ccc(Cl)cc3)CC2)CC1` [Example 458, (2S,4R)-4-(benzylsulfonyl)-1-(1-(4-chlorophenyl)cyclopropanecarbonyl)-N-(1-cyanocyclopropyl)pyrrolidine-2-carboxamide], for which the negative-log IC50 (pIC50) is 4.21.
